{
  "source": "paper PMC8067754",
  "about": "“Active Transport of Hepatotoxic Pyrrolizidine Alkaloids in HepaRG Cells” (International Journal of Molecular Sciences, 2021)",
  "key": {"HepaRG cells [1]": {"test_system": "HepaRG cells", "assay": "Time-dependent PA depletion and PANO formation in cell culture medium of HepaRG cells at 37 °C and 4 °C (LC-MS/MS)"}, "SLC22A1": {"target": "T1, SLC22A1 (Homo sapiens, UniProt O15245)", "T1 construct": "For measuring the uptake of ASP^+ in HepaRG cells incubated with PAs; endogenous in cells; host or cells: differentiated HepaRG cells (human hepatoma)", "T1 sequence (O15245 1-554)": "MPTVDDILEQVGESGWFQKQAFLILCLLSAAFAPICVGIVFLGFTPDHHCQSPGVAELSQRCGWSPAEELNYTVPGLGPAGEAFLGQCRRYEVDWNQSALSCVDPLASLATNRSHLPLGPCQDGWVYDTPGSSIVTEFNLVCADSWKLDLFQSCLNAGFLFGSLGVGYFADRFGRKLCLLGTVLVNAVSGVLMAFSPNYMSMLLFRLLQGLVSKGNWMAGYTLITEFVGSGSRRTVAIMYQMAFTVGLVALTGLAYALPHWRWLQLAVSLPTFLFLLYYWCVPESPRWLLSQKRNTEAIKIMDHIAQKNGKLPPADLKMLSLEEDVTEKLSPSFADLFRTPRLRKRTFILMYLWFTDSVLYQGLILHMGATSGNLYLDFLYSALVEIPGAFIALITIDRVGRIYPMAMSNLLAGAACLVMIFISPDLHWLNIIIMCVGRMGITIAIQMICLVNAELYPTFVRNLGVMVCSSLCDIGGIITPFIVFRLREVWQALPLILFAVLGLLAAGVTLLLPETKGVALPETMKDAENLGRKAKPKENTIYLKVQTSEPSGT", "assay": "ASP+ (SLC22A1 substrate) uptake measurement in HepaRG cells", "format": "cell-based", "protocol": "ASP^+ is an organic cationic mitochondrial dye that only fluoresces inside cells so that fluorescence measured in the cell culture medium can be neglected. […] In parallel, cells were incubated with Qu (100 µM) and TEA (3 mM) as mentioned in Section 4.3. After 24 h, cells were incubated with 1 µM ASP^+ in Hanks’ balanced salt solution (HBSS, Sigma-Aldrich, Taufkirchen, Germany) at 37 °C. Fluorescence was measured after 20 min at ASP^+-specific wavelength (λex = 475 nm and λem = 605 nm) on a TecanM200Pro spectrometer (Tecan Group Ltd., Männedorf, Switzerland) according to Ahlin et al., (2008)."}, "HepaRG cells [2]": {"test_system": "HepaRG cells", "assay": "PA and PANO content in cell culture medium of HepaRG cells upon pharmacological transporter inhibition (LC-MS/MS)", "format": "in vitro ADME, human", "protocol": "In the case of TEA, cells were pre-incubated 24 h prior to PA treatment. The inhibitors were applied anew at PA incubation.\nIn order to measure time-dependent depletion of PA and PANO content in cell culture medium, cells were seeded at a density of 0.2 × 10^6 cells per well in a 6-well plate and cultivated as described in Section 4.2. After four weeks of cultivation, cells were adapted to serum-free medium and medium substituted with insulin, transferrin, selenium (ITS) serum extender (Capricorn Scientific, Ebsdorfergrund, Germany) 48 h prior to PA incubation for optimal LC-MS/MS measurements. […] Samples were taken after 2 h, 4 h, 8 h and 24 h.\nBriefly, chromatographic separation of PA/PANO analytes was achieved on a 50 × 2.1 mm Kinetex ™ 2.6 μm CoreShell EVO C18 100 Å column protected by a SecurityGuard ™ ULTRA EVO C 18 2.1 mm guard column (both Phenomenex, Aschaffenburg, Germany) at a flow rate of 0.4 mL/min on a Shimadzu high performance liquid chromatography (HPLC) apparatus (LC-20AB, SIL-20AC HT, CTO-20AC, CBM-20A, Duisburg, Germany) coupled to an API4000 triple quadrupole MS (Sciex, Darmstadt, Germany). The following MS parameters were used for measurements in positive electrospray ionisation (ESI+) mode: ionisation voltage 2500 V, nebuliser gas 50 psi, heating gas 50 psi, curtain gas 30 psi, temperature 600 °C, collision gas level 7. The substance specific parameters are summarized in Kaltner et al. 2019 [79]."}},
  "note": "Several values for one entry are separate records, joined by “and”; a condition that tells them apart may be missing. Identical values can stand only once.",
  "data": [
    {"smiles": "C/C=C1/C[C@@H](C)[C@@](C)(O)C(=O)OCC2=CCN3CC[C@@H](OC1=O)[C@@H]23", "note": "[Senecionine, senecionine]", "values": [
      {"measurement": "reduction of PA content in the supernatant", "setting": "HepaRG cells [1]", "value": "highest decline"},
      {"measurement": "uptake and toxicity (grading)", "setting": "HepaRG cells [1]", "value": "strong"},
      {"measurement": "PANO in medium, Mean [%]", "setting": "HepaRG cells [1]; human", "value": 0, "unit": "%"},
      {"measurement": "PANO in medium, single replicates (repl.)", "setting": "HepaRG cells [1]; human", "value": 0, "unit": "%"},
      {"measurement": "fluorescence [%], MW [%]", "setting": "SLC22A1; 1 µM, solv ctrl = 100", "value": 90.9095, "unit": "%"},
      {"measurement": "fluorescence [%], MW [%]", "setting": "SLC22A1; 10 µM, solv ctrl = 100", "value": 39.1097, "unit": "%"},
      {"measurement": "fluorescence [%], MW [%]", "setting": "SLC22A1; 50 µM, solv ctrl = 100", "value": 27.2215, "unit": "%"},
      {"measurement": "fluorescence [%], MW [%]", "setting": "SLC22A1; 100 µM, solv ctrl = 100", "value": 21.3927, "unit": "%"},
      {"measurement": "fluorescence [%], MW [%]", "setting": "SLC22A1; 250 µM, solv ctrl = 100", "value": 20.0876, "unit": "%"},
      {"measurement": "interaction with SLC22A1", "setting": "SLC22A1; HepaRG", "value": "both inhibitors and substrates"},
      {"measurement": "minimum concentration inhibiting uptake of the SLC22A1-specific substrate ASP+", "setting": "SLC22A1; HepaRG, 24 h", "value": 10, "unit": "µM"},
      {"measurement": "remaining activity at 1 µM", "setting": "SLC22A1; HepaRG, 24 h, 1 µM, solv ctrl = 100, read-out: fluorescence [%], single replicates (repl.)", "value": 82, "unit": "%"},
      {"measurement": "PA content in medium, single replicates", "setting": "HepaRG cells [2]; 8h, no inhibitor, repl. 1-5", "value": 8.726, "unit": "%"},
      {"measurement": "PA content in medium, single replicates", "setting": "HepaRG cells [2]; 8h, plus Ko143, repl. 1-3", "value": "4.478% and 4.105%"},
      {"measurement": "PA in medium, Mean [%]", "setting": "HepaRG cells [2]; no inhibitor, 0h", "value": 100, "unit": "%"},
      {"measurement": "PA in medium, Mean [%]", "setting": "HepaRG cells [2]; no inhibitor, 4h", "value": 25.6172, "unit": "%"},
      {"measurement": "PA in medium, single replicates (repl.)", "setting": "HepaRG cells [2]; no inhibitor, 4h", "value": "20.2703% and 36.4212% and 41.9726% and 18.235% and 11.1867%"},
      {"measurement": "PA in medium, Mean [%]", "setting": "HepaRG cells [2]; no inhibitor, 8h", "value": 8.337, "unit": "%"},
      {"measurement": "PA in medium, single replicates (repl.)", "setting": "HepaRG cells [2]; no inhibitor, 8h", "value": "5.95% and 13.0309% and 15.415% and 3.983% and 3.308%"},
      {"measurement": "PA in medium, Mean [%]", "setting": "HepaRG cells [2]; no inhibitor, 24h", "value": 0.1453, "unit": "%"},
      {"measurement": "PA in medium, single replicates (repl.)", "setting": "HepaRG cells [2]; no inhibitor, 24h", "value": "0% (3×) and 0.3901% and 0.3363%"},
      {"measurement": "PA in medium, Mean [%]", "setting": "HepaRG cells [2]; plus CsA, 0h", "value": 100, "unit": "%"},
      {"measurement": "PA in medium, single replicates (repl.)", "setting": "HepaRG cells [2]; plus CsA, 0h", "value": 100, "unit": "%"},
      {"measurement": "PA in medium, Mean [%]", "setting": "HepaRG cells [2]; plus CsA, 4h", "value": 83.5787, "unit": "%"},
      {"measurement": "PA in medium, single replicates (repl.)", "setting": "HepaRG cells [2]; plus CsA, 4h", "value": "100.41% and 74.0814%"},
      {"measurement": "PA in medium, Mean [%]", "setting": "HepaRG cells [2]; plus CsA, 8h", "value": 79.3329, "unit": "%"},
      {"measurement": "PA in medium, single replicates (repl.)", "setting": "HepaRG cells [2]; plus CsA, 8h", "value": "78.1367% and 71.9298%"},
      {"measurement": "PA in medium, Mean [%]", "setting": "HepaRG cells [2]; plus CsA, 24h", "value": 63.0445, "unit": "%"},
      {"measurement": "PA in medium, single replicates (repl.)", "setting": "HepaRG cells [2]; plus CsA, 24h", "value": "81.6295% and 67.7648% and 39.7392%"},
      {"measurement": "PA in medium, Mean [%]", "setting": "HepaRG cells [2]; plus Ko143, 0h", "value": 100, "unit": "%"},
      {"measurement": "PA in medium, single replicates (repl.)", "setting": "HepaRG cells [2]; plus Ko143, 0h", "value": 100, "unit": "%"},
      {"measurement": "PA in medium, Mean [%]", "setting": "HepaRG cells [2]; plus Ko143, 4h", "value": 27.3505, "unit": "%"},
      {"measurement": "PA in medium, single replicates (repl.)", "setting": "HepaRG cells [2]; plus Ko143, 4h", "value": "21.9905% and 15.6142% and 44.4468%"},
      {"measurement": "PA in medium, Mean [%]", "setting": "HepaRG cells [2]; plus Ko143, 8h", "value": 9.179, "unit": "%"},
      {"measurement": "PA in medium, single replicates (repl.)", "setting": "HepaRG cells [2]; plus Ko143, 8h", "value": "5.449% and 3.069% and 19.0198%"},
      {"measurement": "PA in medium, Mean [%]", "setting": "HepaRG cells [2]; plus Ko143, 24h", "value": 0.2576, "unit": "%"},
      {"measurement": "PA in medium, single replicates (repl.)", "setting": "HepaRG cells [2]; plus Ko143, 24h", "value": "0% (2×) and 0.7727%"},
      {"measurement": "PA in medium, Mean [%]", "setting": "HepaRG cells [2]; plus MK-571, 0h", "value": 100, "unit": "%"},
      {"measurement": "PA in medium, Mean [%]", "setting": "HepaRG cells [2]; plus MK-571, 4h", "value": 87.0627, "unit": "%"},
      {"measurement": "PA in medium, single replicates (repl.)", "setting": "HepaRG cells [2]; plus MK-571, 4h", "value": "81.9366% and 96.8826% and 82.369%"},
      {"measurement": "PA in medium, Mean [%]", "setting": "HepaRG cells [2]; plus MK-571, 8h", "value": 64.688, "unit": "%"},
      {"measurement": "PA in medium, single replicates (repl.)", "setting": "HepaRG cells [2]; plus MK-571, 8h", "value": "76.7573% and 68.0778% and 49.229%"},
      {"measurement": "PA in medium, Mean [%]", "setting": "HepaRG cells [2]; plus MK-571, 24h", "value": 22.3298, "unit": "%"},
      {"measurement": "PA in medium, single replicates (repl.)", "setting": "HepaRG cells [2]; plus MK-571, 24h", "value": "51.6203% and 9.723% and 5.646%"},
      {"measurement": "PA in medium, Mean [%]", "setting": "HepaRG cells [2]; plus Qu, 0h", "value": 100, "unit": "%"},
      {"measurement": "PA in medium, single replicates (repl.)", "setting": "HepaRG cells [2]; plus Qu, 0h", "value": 100, "unit": "%"},
      {"measurement": "PA in medium, single replicates (repl.)", "setting": "HepaRG cells [2]; plus Qu, 4h", "value": "89.6889% and 96.62%"},
      {"measurement": "PA in medium, single replicates (repl.)", "setting": "HepaRG cells [2]; plus Qu, 8h", "value": "89.9877% and 75.5125% and 84.2%"},
      {"measurement": "PA in medium, single replicates (repl.)", "setting": "HepaRG cells [2]; plus Qu, 24h", "value": "67.9609% and 61.3936% and 73.11%"},
      {"measurement": "PA in medium, Mean [%]", "setting": "HepaRG cells [2]; plus TEA, 0h", "value": 100, "unit": "%"},
      {"measurement": "PA in medium, single replicates (repl.)", "setting": "HepaRG cells [2]; plus TEA, 0h", "value": 100, "unit": "%"},
      {"measurement": "PA in medium, Mean [%]", "setting": "HepaRG cells [2]; plus TEA, 4h", "value": 61.4268, "unit": "%"},
      {"measurement": "PA in medium, single replicates (repl.)", "setting": "HepaRG cells [2]; plus TEA, 4h", "value": "53.1634% and 46.1792% and 84.938%"},
      {"measurement": "PA in medium, Mean [%]", "setting": "HepaRG cells [2]; plus TEA, 8h", "value": 43.7039, "unit": "%"},
      {"measurement": "PA in medium, single replicates (repl.)", "setting": "HepaRG cells [2]; plus TEA, 8h", "value": "34.8001% and 27.837%"},
      {"measurement": "PA in medium, Mean [%]", "setting": "HepaRG cells [2]; plus TEA, 24h", "value": 19.1005, "unit": "%"},
      {"measurement": "PA in medium, single replicates (repl.)", "setting": "HepaRG cells [2]; plus TEA, 24h", "value": "7.953% and 7.514% and 41.8346%"}
    ]}
  ]
}
